Patent US7291641B2, “Derivatives of heterocycles with 5 members, their preparation and their use as medicaments” (Societe de Conseils de Recherches et d'Applications …, priority 1999, dated 2007)
Where a name gives a salt, the structure may show the parent alone.

SMILES	melting point [°C]
FC(F)(F)c1cc(-c2c[nH]c([C@@H](NC3CCCCC3)C3CCCCC3)n2)cc(C(F)(F)F)c1 [Example 284, N-[(S)-{4-[3,5-bis(trifluoromethyl)phenyl]-1H-imidazol-2-yl}(cyclohexyl)methyl]cyclohexanamine]	180 to 182
Cc1[nH]c(CN(C)C(=O)OC(C)(C)C)nc1-c1ccccc1 [Example 153, tert-butyl methyl[(5-methyl-4-phenyl-1H-imidazol-2-yl)methyl]carbamate]	70 to 72
CCCCOC(=O)N[C@H](C)c1nc(-c2ccc(-c3ccccc3)cc2)c[nH]1 [Example 242, 4-(2-{(1R)-1-[(butoxycarbonyl)amino]ethyl}-1H-imidazol-4-yl)-1,1′-biphenyl]	114 to 116
CCCCCCOC(=O)NCCc1nc(-c2cc(C(C)(C)C)c(O)c(C(C)(C)C)c2)c[nH]1 [Example 386, hexyl 2-[4-(3,5-ditert-butyl-4-hydroxyphenyl)-1H-imidazol-2-yl]ethylcarbamate]	197.4
CCCCCCOC(=O)NCCc1nc(-c2ccc(-c3ccccc3)cc2)c[nH]1 [Example 255, hexyl 2-(4-[1,1′-biphenyl]-4-yl-1H-imidazol-2-yl)ethylcarbamate]	116.5 to 116.8
FC(F)(F)c1cccc(-c2c[nH]c([C@@H](NC3CCCCC3)C3CCCCC3)n2)c1 [Example 304, N-((S)-cyclohexyl{4-[3-(trifluoromethyl)phenyl]-1H-imidazol-2-yl}methyl)cyclohexanamine]	186 to 188
CCCCOC(=O)NCCc1nc(-c2ccc(-c3ccc(Cl)cc3)cc2)c[nH]1 [Example 395, butyl 2-[4-(4′-chloro-1,1′-biphenyl-4-yl)-1H-imidazol-2-yl]ethylcarbamate]	164.2
CC(C)(C)OC(=O)NCc1nc(-c2ccccc2)cn1Cc1ccccc1 [Example 104, tert-butyl (1-benzyl-4-phenyl-1H-imidazol-2-yl)methylcarbamate]	140 to 142
CC(C)COC(=O)NCCc1nc(-c2ccc(-c3ccccc3)cc2)c[nH]1 [Example 239, 4-(2-{2-[(isobutoxycarbonyl)amino]ethyl}-1H-imidazol-4-yl)-1,1′-biphenyl]	134 to 135
COc1ccc(-c2c[nH]c([C@@H](N)C3CCCCC3)n2)cc1F (as salt: hydrochloride) [Example 259, (S)-cyclohexyl[4-(3-fluoro-4-methoxyphenyl)-1H-imidazol-2-yl]-methanamine]	225 to 227
CC[C@H](N)c1nc(-c2ccccc2)c(-c2ccccc2)[nH]1 (as salt: hydrochloride) [Example 199, (1S)-1-(4,5-diphenyl-1H-imidazol-2-yl)-1-propanamine]	224 to 226
CN(C)Cc1nc(-c2ccccc2)cn1Cc1ccccc1 [Example 45, (1-benzyl-4-phenyl-1H-imidazol-2-yl)-N,N-dimethylmethanamine]	78 to 80
CC(C)(C)NC(=O)NCCc1nc(-c2ccc(-c3ccccc3)cc2)c[nH]1 [Example 177, 4-[2-(2-{[(tert-butylamino)carbonyl]amino}ethyl)-1H-imidazol-4-yl]-1,1′-biphenyl]	195 to 196
CCCCCCC(NCC1CCCCC1)c1nc(-c2ccccc2)c[nH]1 (racemic) (as salt: hydrochloride) [Example 263, (R,S) N-(cyclohexylmethyl)-1-(4-phenyl-1H-imidazol-2-yl)-1-heptanamine]	142 to 144
CC(C)COC(=O)NCCc1nc(-c2ccc(C(C)(C)C)cc2)c[nH]1 [Example 339, isobutyl 2-[4-(4-tert-butylphenyl)-1H-imidazol-2-yl]ethylcarbamate]	110.6
CC(C)(C)c1c[nH]c([C@H](N)Cc2c[nH]c3ccccc23)n1 (as salt: hydrochloride)	230 to 232
CCCCOC(=O)NCCc1nc(-c2ccc(-c3ccccc3)cc2)c(C)[nH]1 [Example 393, butyl 2-[4-(1,1′-biphenyl-4-yl)-5-methyl-1H-imidazol-2-yl]ethylcarbamate]	143 to 144
O=C(NCCc1nc(-c2ccc(N3CCCC3)cc2)c[nH]1)OCCCC(F)(F)F [Example 385, 4,4,4-trifluorobutyl 2-[4-(4-pyrrolidin-1-ylphenyl)-1H-imidazol-2-yl]ethylcarbamate]	148.3
CC(C)(C)OC(=O)N[C@H](CC1CCCCC1)c1nc(-c2ccc(-c3ccccc3)cc2)c[nH]1 [Example 150, 4-(2-{(1R)-1-[(tert-butoxycarbonyl)amino]-2-cyclohexylethyl}-1H-imidazol-4-yl)-1,1′-biphenyl]	112 to 114
CC[C@H](NC(=O)OC(C)(C)C)c1nc(-c2ccc(-c3ccccc3)cc2)c[nH]1 [Example 194, 4-(2-{(1S)-1-[(tert-butoxycarbonyl)amino]propyl}-1H-imidazol-4-yl)-1,1′-biphenyl]	138 to 140
CC(C)(N)c1nc(-c2ccccc2)c[nH]1 (as salt: hydrochloride)	200 to 204
Fc1ccc(-c2c[nH]c([C@@H](NCC3CC3)C3CCCCC3)n2)cc1 (as salt: hydrochloride) [Example 273, (S)-cyclohexyl-N-(cyclopropylmethyl)[4-(4-fluorophenyl)-1H-imidazol-2-yl]-methanamine]	221.4
CC(C)(C)OC(=O)NCc1nc(-c2ccccc2)c[nH]1 [Example 103, tert-butyl (4-phenyl-1H-imidazol-2-yl)methylcarbamate]	170 to 172
CC(C)[C@@H](NC1CCCCC1)c1nc(-c2ccc(F)cc2)c[nH]1 [Example 276, N-{(1R)-1-[4-(4-fluorophenyl)-1H-imidazol-2-yl]-2-methylpropyl}-cyclohexanamine]	224 to 226
CCCCOC(=O)N[C@@H](C)c1nc(-c2ccc(-c3ccccc3)cc2)c[nH]1 [Example 241, 4-(2-{(1S)-1-[(butoxycarbonyl)amino]ethyl}-1H-imidazol-4-yl)-1,1′-biphenyl]	118 to 122
O=C(NCCc1nc(-c2ccc(-c3ccc(Br)cc3)cc2)c[nH]1)OCC1CCCCC1 [Example 303, cyclohexylmethyl 2-[4-(4′-bromo-1.1′-biphenyl-4-yl)-1H-imidazol-2-yl]ethylcarbamate]	130 to 132
C#CCN(C)Cc1nc(-c2cc(C(C)(C)C)c(O)c(C(C)(C)C)c2)cs1 [Example 2, 2,6-di(tert-butyl)-4-(2-{[methyl(2-propynyl)amino]methyl}-1,3-thiazol-4-yl)phenol]	210 to 215

Continued, values first:

melting point [°C]	SMILES
254 to 256	c1ccc(CNCCCc2nc(-c3ccc(-c4ccccc4)cc3)c[nH]2)cc1 [Example 178, N-benzyl-3-(4-[1,1′-biphenyl]-4-yl-1H-imidazol-2-yl)-1-propanamine]
141.2	CCCOC(=O)NCCc1nc(-c2ccc(-c3ccccc3)cc2)c[nH]1 [Example 245, 4-(2-{2-[(propoxycarbonyl)amino]ethyl}-1H-imidazol-4-yl)-1,1′-biphenyl]
134 to 135	CC(C)C[C@@H](NCc1ccccc1)c1nc(-c2ccccc2)c[nH]1 [Example 125, (1R)-N-benzyl-3-methyl-1-(4-phenyl-1H-imidazol-2-yl)-1-butanamine]
100 to 102	CCCCCCC(NCc1ccccc1)c1nc(-c2ccc(-c3ccccc3)cc2)c[nH]1 (racemic) [Example 195, (R,S)-N-benzyl-1-(4-[1,1′-biphenyl]-4-yl-1H-imidazol-2-yl)-1-heptanamine]
173 to 180	N[C@H](Cc1ccccc1)c1nc(-c2ccc(F)cc2)c[nH]1 (as salt: hydrochloride) [Example 324, (1R)-1-[4-(4-fluorophenyl)-1H-imidazol-2-yl]-2-phenylethanamine]
182 to 184	CCC[C@@H](N)c1nc(-c2ccccc2)c[nH]1 (as salt: hydrochloride) [Example 211, (1R)-1-(4-phenyl-1H-imidazol-2-yl)-1-butanamine]
125.2	CC(C)Cc1ccc(-c2c[nH]c(CCNC(=O)OCc3ccccc3)n2)cc1 [Example 446, benzyl 2-[4-(4-isobutylphenyl)-1H-imidazol-2-yl]ethylcarbamate]
52 to 54	c1ccc(CN[C@H](CC2CCCCC2)c2nc(-c3ccccc3)c[nH]2)cc1 [Example 134, (1R)-N-benzyl-2-cyclohexyl-1-(4-phenyl-1H-imidazol-2-yl)ethanamine]
92 to 94	CC(C)CCCC(NCc1ccccc1)c1nc(-c2cccc(Br)c2)c[nH]1 (racemic) [Example 235, (R,S)-N-benzyl-1-[4-(3-bromophenyl)-1H-imidazol-2-yl]-5-methyl-1-hexanamine]
170	CCCCCCC(NCc1ccccc1)c1nc(-c2ccc(N(CC)CC)cc2)c[nH]1 (racemic) (as salt: hydrochloride) [Example 230, (R,S)-N-benzyl-N-(1-{4-[4-(diethylamino)phenyl]-1H-imidazol-2-yl}heptyl)amine]
78.6	CCC[C@@H](NCc1ccccc1)c1nc(-c2ccc(-c3ccccc3)cc2)c[nH]1 [Example 213, (1R)-N-benzyl-1-(4-[1,1′-biphenyl]-4-yl-1H-imidazol-2-yl)-1-butanamine]
180 to 190	Fc1ccc(-c2c[nH]c(C(Cc3c[nH]c4ccc(F)cc34)NC3CCC3)n2)cc1 (racemic) (as salt: hydrochloride) [Example 256, (R,S)-N-{2-(5-fluoro-1H-indol-3-yl)-1-[4-(4-fluorophenyl)-1H-imidazol-2-yl]ethyl}cyclobutanamine]
215 to 218	N[C@H](CCc1ccccc1)c1nc(-c2ccc(-c3ccccc3)cc2)c[nH]1 (as salt: hydrochloride) [Example 166, (1R)-1-(4-[1,1′-biphenyl]-4-yl-1H-imidazol-2-yl)-3-phenyl-1-propanamine]
210 to 212	NC(Cc1c[nH]c2cc(Cl)ccc12)c1nc(-c2ccccc2)c[nH]1 (racemic) (as salt: hydrochloride) [Example 122, (R,S)-2-(6-chloro-1H-indol-3-yl)-1-(4-phenyl-1H-imidazol-2-yl)ethylamine]
